# Patent publication US8258134B2, “Pyridazinone glucokinase activators” (Hoffmann-La Roche Inc., priority 2008, dated 2012)
# Biological target: T1, Recombinant human liver GK1 (GST-GK) (Homo sapiens, UniProt P35557)
# T1 construct: made in house; host or cells: E. coli
# T1 sequence (P35557 1-466 isoform P35557-2): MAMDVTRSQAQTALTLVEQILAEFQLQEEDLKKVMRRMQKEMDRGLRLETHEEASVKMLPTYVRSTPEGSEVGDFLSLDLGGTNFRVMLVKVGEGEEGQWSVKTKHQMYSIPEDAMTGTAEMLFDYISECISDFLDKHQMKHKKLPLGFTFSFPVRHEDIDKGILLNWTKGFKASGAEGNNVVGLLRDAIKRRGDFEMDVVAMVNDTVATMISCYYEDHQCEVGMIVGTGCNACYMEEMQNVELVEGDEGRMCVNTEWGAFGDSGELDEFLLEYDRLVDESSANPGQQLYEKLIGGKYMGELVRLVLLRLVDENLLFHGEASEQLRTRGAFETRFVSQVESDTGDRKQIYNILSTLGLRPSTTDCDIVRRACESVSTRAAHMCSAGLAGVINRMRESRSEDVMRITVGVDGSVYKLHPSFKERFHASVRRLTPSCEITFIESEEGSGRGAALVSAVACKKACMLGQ
# Assay: Glucokinase in vitro assay (G6PDH-coupled NADH generation, OD340)
# Assay type: biochemical
# Conditions: 5 mM D-glucose, 30° C., pH 7.1, 10% DMSO
# Procedure, shortened: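 GST-tagged recombinant GK1 expressed in E. coli, run at 30° C, pH 7.1 Hepes with 5 mM D-glucose, 1 mM ATP and 1.8 mM NAD, G6PDH-coupled. Compounds were in 10% DMSO final, with a 10 min pre-incubation before enzyme addition. OD340/min rate measured; SC1.5 is the activator concentration giving a 50% increase in activity.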
row,Structure (SMILES),SC1.5 average (concentration of activator that produced a 50% increase in the activity of GK) [µM]
1,"Cn1nc(C(F)(F)F)cc1Oc1cnn(C(CC2CCCC2)C(=O)Nc2ccn(C[C@@H](O)CO)n2)c(=O)c1 (stereo partly drawn) [Example 103, 3-Cyclopentyl-N-[1-((R)-2,3-dihydroxy-propyl)-1H-pyrazol-3-yl]-2-[4-(2-methyl-5-trifluoromethyl-2H-pyrazol-3-yloxy)-6-oxo-6H-pyridazin-1-yl]-propionamide]",2.591
2,"O=C(Nc1ccn(C[C@@H](O)CO)n1)C(CC1CCCC1)n1ncc(Oc2cccc(Cl)c2F)cc1=O (stereo partly drawn) [Example 104, 2-[4-(3-Chloro-2-fluoro-phenoxy)-6-oxo-6H-pyridazin-1-yl]-3-cyclopentyl-N-[1-((R)-2,3-dihydroxy-propyl)-1H-pyrazol-3-yl]-propionamide]",0.139
3,"O=C(Nc1ccn(C[C@@H](O)CO)n1)C(CC1CCCC1)n1ncc(Oc2c(F)cccc2F)cc1=O (stereo partly drawn) [Example 105, 3-Cyclopentyl-2-[4-(2,6-difluoro-phenoxy)-6-oxo-6H-pyridazin-1-yl]-N-[1-((R)-2,3-dihydroxy-propyl)-1H-pyrazol-3-yl]-propionamide]",0.072
4,"Cc1ccc(F)c(Oc2cnn(C(CC3CCCC3)C(=O)Nc3ccn(C[C@@H](O)CO)n3)c(=O)c2)c1F (stereo partly drawn) [Example 107, 3-Cyclopentyl-2-[4-(2,6-difluoro-3-methyl-phenoxy)-6-oxo-6H-pyridazin-1-yl]-N-[1-((R)-2,3-dihydroxy-propyl)-1H-pyrazol-3-yl]-propionamide]",0.042
5,"O=C(Nc1ccn(C[C@@H](O)CO)n1)C(Cc1c(F)cccc1F)n1ncc(Oc2c(F)cccc2F)cc1=O (stereo partly drawn) [Example 108, 2-[4-(2,6-Difluoro-phenoxy)-6-oxo-6H-pyridazin-1-yl]-3-(2,6-difluoro-phenyl)-N-[1-((R)-2,3-dihydroxy-propyl)-1H-pyrazol-3-yl]-propionamide]",0.521
6,"CC(C)CC(C(=O)Nc1ccn(C[C@@H](O)CO)n1)n1ncc(Oc2cccc3ccccc23)cc1=O (stereo partly drawn) [Example 109, 4-Methyl-2-[4-(naphthalen-1-yloxy)-6-oxo-6H-pyridazin-1-yl]-pentanoic acid [1-((R)-2,3-dihydroxy-propyl)-1H-pyrazol-3-yl]-amide]",0.293
7,"CC(C)CC(C(=O)Nc1ccn(C[C@@H](O)CO)n1)n1ncc(Oc2cccc3c2CCCC3)cc1=O (stereo partly drawn) [Example 110, 4-Methyl-2-[6-oxo-4-(5,6,7,8-tetrahydro-naphthalen-1-yloxy)-6H-pyridazin-1-yl]-pentanoic acid [1-((R)-2,3-dihydroxy-propyl)-1H-pyrazol-3-yl]-amide]",0.29
8,"CC(C)CC(C(=O)Nc1ccn(C[C@@H](O)CO)n1)n1ncc(Oc2cccc3[nH]ccc23)cc1=O (stereo partly drawn) [Example 111, 2-[4-(1H-Indol-4-yloxy)-6-oxo-6H-pyridazin-1-yl]-4-methyl-pentanoic acid [1-((R)-2,3-dihydroxy-propyl)-1H-pyrazol-3-yl]-amide]",0.554
9,"CC(C)CC(C(=O)Nc1ccn(C[C@@H](O)CO)n1)n1ncc(-n2ccc3c(O)cccc32)cc1=O (stereo partly drawn) [Example 112, 2-[4-(4-Hydroxy-indol-1-yl)-6-oxo-6H-pyridazin-1-yl]-4-methyl-pentanoic acid [1-((R)-2,3-dihydroxy-propyl)-1H-pyrazol-3-yl]-amide]",2.606
10,"CC(C)CC(C(=O)Nc1ccn(C)n1)n1ncc(Oc2cccc3c2ccn3C[C@@H](O)CO)cc1=O (stereo partly drawn) [Example 113, 2-{4-[1-((R)-2,3-Dihydroxy-propyl)-1H-indol-4-yloxy]-6-oxo-6H-pyridazin-1-yl}-4-methyl-pentanoic acid (1-methyl-1H-pyrazol-3-yl)-amide]",2.308
11,"O=C(Nc1ccn(C[C@@H](O)CO)n1)C(CC1CCCC1)n1ncc(OCCc2ccccc2Cl)cc1=O (stereo partly drawn) [Example 114, 2-{4-[2-(2-Chloro-phenyl)-ethoxy]-6-oxo-6H-pyridazin-1-yl}-3-cyclopentyl-N-[1-((R)-2,3-dihydroxy-propyl)-1H-pyrazol-3-yl]-propionamide]",1.656
12,"O=C(Nc1ccn(C[C@@H](O)CO)n1)C(CC1CCCC1)n1ncc(Oc2nccc(C(F)(F)F)n2)cc1=O (stereo partly drawn) [Example 115, 3-Cyclopentyl-N-[1-((R)-2,3-dihydroxy-propyl)-1H-pyrazol-3-yl]-2-[6-oxo-4-(4-trifluoromethyl-pyrimidin-2-yloxy)-6H-pyridazin-1-yl]-propionamide]",0.376
13,"COc1ccc(Oc2cnn(C(CC3CCCCC3)C(=O)Nc3ccn(CC(C)(C)O)n3)c(=O)c2)c(F)c1 (stereo not drawn) [Example 116, 3-Cyclohexyl-2-[4-(2-fluoro-4-methoxy-phenoxy)-6-oxo-6H-pyridazin-1-yl]-N-[1-(2-hydroxy-2-methyl-propyl)-1H-pyrazol-3-yl]-propionamide]",0.543
14,"Cc1ccc(Oc2cnn(C(CC3CCCCC3)C(=O)Nc3ccn(CC(C)(C)O)n3)c(=O)c2)c(C)c1 (stereo not drawn) [Example 117, 3-Cyclohexyl-2-[4-(2,4-dimethyl-phenoxy)-6-oxo-6H-pyridazin-1-yl]-N-[1-(2-hydroxy-2-methyl-propyl)-1H-pyrazol-3-yl]-propionamide]",0.352
15,"COc1ccc(Oc2cnn(C(CC3CCCCC3)C(=O)Nc3ccn(CC(C)(C)O)n3)c(=O)c2)c(Cl)c1 (stereo not drawn) [Example 118, 2-[4-(2-Chloro-4-methoxy-phenoxy)-6-oxo-6H-pyridazin-1-yl]-3-cyclohexyl-N-[1-(2-hydroxy-2-methyl-propyl)-1H-pyrazol-3-yl]-propionamide]",0.237
16,"CC(C)(O)Cn1ccc(NC(=O)C(CC2CCCCC2)n2ncc(Oc3ccc(OC(F)(F)F)cc3Cl)cc2=O)n1 (stereo not drawn) [Example 119, 2-[4-(2-Chloro-4-trifluoromethoxy-phenoxy)-6-oxo-6H-pyridazin-1-yl]-3-cyclohexyl-N-[1-(2-hydroxy-2-methyl-propyl)-1H-pyrazol-3-yl]-propionamide]",0.811
17,"CCOc1ccc(F)c(Oc2cnn(C(CC(C)C)C(=O)Nc3ccn(C[C@@H](O)CO)n3)c(=O)c2)c1F (stereo partly drawn) [Example 120, 2-[4-(3-ethoxy-2,6-difluoro-phenoxy)-6-oxo-6H-pyridazin-1-yl]-4-methyl-pentanoic acid [1-((R)-2,3-dihydroxy-propyl)-1H-pyrazol-3-yl]-amide]",0.18
18,"CCOc1ccc(F)c(Oc2cnn(C(CC3CCOCC3)C(=O)Nc3ccn(C[C@@H](O)CO)n3)c(=O)c2)c1F (stereo partly drawn) [Example 121, N-[1-((R)-2,3-Dihydroxy-propyl)-1H-pyrazol-3-yl]-2-[4-(3-ethoxy-2,6-difluoro-phenoxy)-6-oxo-6H-pyridazin-1-yl]-3-(tetrahydro-pyran-4-yl)-propionamide]",0.088
